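Dose response: 5 concentrations. Exposure: 48 h. Format: 96-well plates. Endpoint: linear interpolation; highest concentration if not reached. GI50: concentration for 50% inhibition of growth. TGI marks complete inhibition of growth.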
Legend:
Test in all cases: NCI-60 cell line screen, 48 h
EKVX NSCLC = tested on: EKVX NSCLC
HCT-15 colon = tested on: HCT-15 colon
MCF7 breast = tested on: MCF7 breast
NCI-H23 lung = tested on: NCI-H23 lung
NCI-H460 lung = tested on: NCI-H460 lung
PC-3 prostate = tested on: PC-3 prostate
SF-295 CNS = tested on: SF-295 CNS
SK-MEL-28 melanoma = tested on: SK-MEL-28 melanoma
SNB-75 CNS = tested on: SNB-75 CNS
UACC-257 melanoma = tested on: UACC-257 melanoma

| Structure (SMILES) | TGI (EKVX NSCLC) [µM] | TGI (HCT-15 colon) [µM] | TGI (MCF7 breast) [µM] | TGI (NCI-H23 lung) [µM] | TGI (NCI-H460 lung) [µM] | TGI (PC-3 prostate) [µM] | TGI (SF-295 CNS) [µM] | TGI (SK-MEL-28 melanoma) [µM] | TGI (SNB-75 CNS) [µM] | TGI (UACC-257 melanoma) [µM] | GI50 (EKVX NSCLC) [µM] | GI50 (HCT-15 colon) [µM] | GI50 (MCF7 breast) [µM] | GI50 (NCI-H23 lung) [µM] | GI50 (NCI-H460 lung) [µM] | GI50 (PC-3 prostate) [µM] | GI50 (SF-295 CNS) [µM] | GI50 (SK-MEL-28 melanoma) [µM] | GI50 (SNB-75 CNS) [µM] | GI50 (UACC-257 melanoma) [µM] |
| --- | --- | --- | --- | --- | --- | --- | --- | --- | --- | --- | --- | --- | --- | --- | --- | --- | --- | --- | --- | --- |
| O=C(/C=C/c1csc(-c2ccccc2)n1)NCc1ccc(C(=O)NCc2ccccc2)cc1 | > 100 | > 100 | > 100 | > 100 | > 100 | > 100 | > 100 | > 100 | 60.5 | > 100 |  |  |  |  |  |  |  |  |  |  |
| C#CCOCC12C=CC(O1)C1C(=O)OCC12 (stereo not given) | > 100 | > 100 | > 100 | > 100 | > 100 | > 100 | > 100 | > 100 | > 100 | > 100 |  |  |  |  |  |  |  |  |  |  |
| CCOC(=O)CSc1nnc(C(Sc2nc(-c3ccccc3)c(-c3ccccc3)[nH]2)C(C)C)n1-c1ccccc1 (stereo not given) | > 31.6 | > 31.6 | > 100 | > 10 | > 31.6 | > 100 | > 10 | 29 | > 10 | 19.3 |  |  |  |  |  |  |  |  |  |  |
| CSCCC(NC(=O)Cc1ccc(C(=O)c2ccccc2)cc1)C(=O)O (stereo not given) | > 100 | > 100 | > 100 | > 100 | > 100 | > 100 | > 100 | > 100 | > 100 | > 100 |  |  |  |  |  |  |  |  |  |  |
| Cc1ccc2c(=O)cc(-c3ccc(-c4ccccc4)s3)[nH]c2n1 | > 81.4 | > 100 | > 100 | > 100 | > 100 | 85.5 | 99.5 | > 100 | > 100 | > 100 |  |  |  |  |  |  |  |  |  |  |
| CC(C)C1=CC23CCC4C(C)(C(=O)O)CCCC4(C)C2CC1C1C(=O)N(c2ccc(C(=O)O)cc2)C(=O)C13 (stereo not given) | > 100 | > 100 | > 100 | > 100 | > 100 | > 100 | > 100 | > 100 | > 100 | > 100 |  |  |  |  |  |  |  |  |  |  |
| CCOc1ccc(-n2nnc3c(N)nc(N)nc32)cc1 | > 100 | > 100 | > 100 | > 100 | > 100 | > 100 | > 100 | > 100 | > 100 | > 100 |  |  |  |  |  |  |  |  |  |  |
| COc1cc([C@@H]2c3cc(O)c(OC)cc3C=C(C(N)=O)[C@H]2C(N)=O)ccc1O | > 100 | > 100 | > 100 | > 100 | > 100 | > 100 | > 100 | > 100 | > 100 | > 100 |  |  |  |  |  |  |  |  |  |  |
| CC(C)[C@@H]1ON1C(C)c1ccccc1 (stereo not given in full) | > 100 | > 100 | > 100 | > 100 | > 100 | > 100 | > 100 | > 100 | > 100 | > 100 |  |  |  |  |  |  |  |  |  |  |
| Fc1ccccc1C1SCc2nc3cc4ccccc4cc3n21 (stereo not given) | > 100 | > 100 | > 100 | > 100 | > 100 | > 100 | > 100 | > 100 | > 100 | > 100 |  |  |  |  |  |  |  |  |  |  |
| CCOc1cc(NC(C)=O)ccc1C(=O)NN1C(=O)C(Cl)C1c1ccco1 (stereo not given) | 36.2 | 46.6 | 26.8 | 39 | 35.1 | 32.3 | 30.5 | 63.5 | 26.7 | 34.2 |  |  |  |  |  |  |  |  |  |  |
| OC(c1ccc(-c2ccccc2)cc1)C(F)(F)c1nc2ccccc2o1 (stereo not given) | > 100 | > 100 | > 100 | > 100 | > 100 | > 100 | > 100 | > 100 | > 100 | > 100 |  |  |  |  |  |  |  |  |  |  |
| COc1nc(N)c(N=CC(OC(C)=O)C(OC(C)=O)C(COC(C)=O)OC(C)=O)c(=O)n1C (stereo not given) | > 100 | > 100 | > 100 | > 100 | > 100 | > 100 | > 100 | > 100 | > 100 | > 100 |  |  |  |  |  |  |  |  |  |  |
| CC1OC(O[C@H]2/C=C/C=C/C=C/C=C/C=C/C=C/C=C/[C@H](C)[C@@H](O)[C@@H](C)[C@H](C)OC(=O)CC(O)CC(O)CCC(O)C(O)CC(O)C[C@]3(O)C[C@H](O)C(C(=O)O)C(C2)O3)C(O)[C@H](N)C1O (stereo not given in full) | 11 | 54 | 19.7 | 5.36 | 4.84 | 3.92 | 38 | 3.98 | > 100 | 3.4 | 3.4 | 12 | 5.02 | 2.11 | 2.14 | 1.81 | 18.6 | 2.07 | 25.3 | 1.75 |
| CCN(c1cccc(NC(=S)Nc2ccccc2N(CC)c2cc(-c3ccccc3)no2)c1)c1cc(-c2ccccc2)no1 | > 100 | > 100 | > 100 | > 100 | > 100 | > 100 | > 100 | > 100 | > 100 | > 100 |  |  |  |  |  |  |  |  |  |  |

Source: PubChem BioAssay (NCI)
